From US9750742B2, “Small molecular inhibitors of RAD51 recombinase and methods thereof” (Drexel University, priority 2011, dated 2017)

Experiments:
RAD51 [1] = biological target: T1, RAD51 (Homo sapiens, UniProt Q06609); assay: Effect on RAD51 oligomerization (gel filtration); conditions: B02 200 μM, RAD51 13.5 μM
T1 construct: made in house
T1 sequence (Q06609 1-339): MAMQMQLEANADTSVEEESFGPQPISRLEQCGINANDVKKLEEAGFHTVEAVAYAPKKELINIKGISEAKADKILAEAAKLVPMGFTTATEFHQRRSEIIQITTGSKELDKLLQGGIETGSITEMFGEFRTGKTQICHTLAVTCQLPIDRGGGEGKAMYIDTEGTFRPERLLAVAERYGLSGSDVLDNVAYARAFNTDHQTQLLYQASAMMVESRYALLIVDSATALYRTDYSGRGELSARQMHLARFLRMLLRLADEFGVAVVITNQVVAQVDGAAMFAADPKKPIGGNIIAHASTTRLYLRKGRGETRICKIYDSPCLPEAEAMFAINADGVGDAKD
Method: The samples were then centrifuged for 15 min at 16,000×g, 4° C. Supernatants were loaded on a Superose 6 10/300 GL column (GE Healthcare) equilibrated with buffer E and eluted with a flow rate of 0.2 ml/min at 4° C. The gel filtration molecular weight marker kit (29-669 kDa, Sigma) was used for column calibration. The 0.3-ml fractions were collected and analyzed by electrophoresis in a 12% SDS-PAGE gel (100 V, 90 min).

RecA [2] = biological target: T2, RecA (Escherichia coli, UniProt P0A7G6); assay: biochemical; parameters: species or system E. coli
T2 construct: purchased USB Inc. (Cleveland, Ohio)
Method: (Mazin et al., 2000, EMBO J. 19:1148-56). When indicated, chemical compounds in specified concentrations were added and incubation was continued for 30 min at 37° C. D-loop formation was initiated by addition of supercoiled pUC19 dsDNA (50 μM, nt) and carried out for 3 min at 37° C. The DNA products were deproteinized and analyzed as described above for the Rad51-promoted reaction.
(§1) IC50 values were calculated using GraphPad Prism V5.0 software and the sigmoidal dose-response function. The data were obtained from three independent repeats of experiments.

pUC19 supercoiled dsDNA = assay: Ethidium bromide displacement assay; format: binding
Method: The fluorescence of the sample was measured using a FlouroMax-3 fluorimeter at an excitation wavelength of 260 nm and an emission wavelength of 546 nm. Then, the small molecule inhibitors were added in increasing concentrations and allowed to equilibrate for 1 min, followed by the fluorescence measurement.

[3] = system: RAD51 foci in 293 human embryonic kidney (HEK) cells; assay: RAD51 foci formation; format: cell-based
Method: 2×10^5 log phase HEK-GFP cells were seeded in 3.5-cm tissue culture plates on glass coverslips pretreated with 0.01% poly-L-lysine (Sigma) and grown overnight. […] Cells were then exposed to 0.5 Gy IR using a Primus Linear Accelerator (Siemens) at […], 3 Gy/min followed by a 2-h incubation at 37° C. Cells were washed with phosphate-buffered saline (PBS) (8.1 mM Na2HPO4, 1.47 mM KH2PO4, 138 mM NaCl and 2.7 mM KCl, pH 7.4), extracted with PBS containing 0.2% Triton X-100 and 1 mM phenylmethanesulfonylfluoride (PMSF) for 5 min at 4° C., and fixed with PBS supplemented with 3.0% formaldehyde and 2.0% sucrose for 10 min. Cells were permeabilized with PBS containing 0.5% Triton X-100 for 5 min and blocked with PBS containing 3% BSA and 0.05% Tween 20 for 30 min at 23° C. Cells were treated with the polyclonal rabbit RAD51 antibodies (1:500 dilution) (a gift from Dr. Golub, Yale University) in PBS containing 3% BSA and 0.05% Triton X-100 overnight at 4° C., and then with Alexa Fluor 488 donkey antirabbit IgG (H+L) antibodies (1:1000 dilution) (Invitrogen) for 1 h at 23° C. followed by a 5-min staining with 500 ng/ml 4′,6-diamidino-2-phenylindole (DAPI) in PBS containing 0.05% Tween 20. Samples were washed in PBS containing 0.05% Tween 20, mounted in VectaShield™ (Vector Laboratories), and sealed with nail polish. The fluorescence images were obtained using an Olympus IX70 inverted microscope and iVision-Mac™ software (BioVision).

RAD51 [4] = biological target: T1, RAD51; assay: D-loop assay for RAD51; format: biochemical; conditions: compounds 100 μM; RAD51 1 μM
Method: When indicated, chemical compounds in question were added in specified concentrations and incubation was continued for 30 min at 37° C. D-loop formation was initiated by addition of supercoiled pUC19 dsDNA (50 μM, nt) and continued for 15 min. Reactions were stopped by addition of SDS to 1% (w/v) and proteinase K to 880 μg ml^−1 followed by incubation for 15 min at 37° C. […] The yield of joint molecules was expressed as a percentage of the total plasmid DNA.
The reaction was deproteinized and analyzed as described above.
as §1

RecA [5] = biological target: T2, RecA; assay: Branch migration assay, RecA; format: biochemical, E. coli; conditions: B02 10-100 μM
Method: Branch migration was initiated by addition of ^32P-labeled 5′-joint molecules (0.1 nM, molecules) that were produced by RecA-promoted reaction and was carried out for 30 min. The DNA products were deproteinized and analyzed in 1.5% agarose-TAE gels and quantified using a Storm 840 PhosphorImager (GE Healthcare).

[6] = system: DR-GFP reporter system in 293 human embryonic kidney (HEK) cells; assay: DR-GFP assay for homologous recombination in human cells; format: cell-based; conditions: B02 20 μM; non-treatment cells 3.28%
Method: 293 HEK cells expressing DR-GFP were grown until the log phase. […] Then a 200 μl mixture containing 2 μg of pCBASce supercoiled plasmid DNA encoding I-SceI rare-cutting restriction endonuclease (Richardson et al., 1998, Genes Dev. 12:3831-42) and 6 μl of GenDrill™ transfection reagent (BamaGen BioScience LLC) in Opti-MEM® I Reduced-Serum (Invitrogen) was added to each well. After 2 days incubation, cells were trypsinized and diluted to density of 200 cells/μl in PBS (10 mM Na2HPO4, 1.76 mM KH2PO4, 137 mM NaCl and 2.7 mM KCl, pH 7.4) for Fluorescence Activated Cell Sorting (FACS) analysis on a Guava EasyCyte Plus System (Millipore, Billerica, Mass.).

T2 sequence (P0A7G6 whole entry): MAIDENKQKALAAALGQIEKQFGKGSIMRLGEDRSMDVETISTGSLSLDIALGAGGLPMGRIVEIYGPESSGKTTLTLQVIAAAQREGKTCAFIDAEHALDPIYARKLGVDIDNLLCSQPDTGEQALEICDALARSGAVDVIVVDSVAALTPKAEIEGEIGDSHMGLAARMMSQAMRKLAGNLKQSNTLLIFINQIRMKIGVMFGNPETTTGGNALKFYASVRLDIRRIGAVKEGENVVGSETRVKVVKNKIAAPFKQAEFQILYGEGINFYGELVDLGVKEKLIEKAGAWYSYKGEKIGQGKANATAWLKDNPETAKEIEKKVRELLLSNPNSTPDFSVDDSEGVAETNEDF

Structure (SMILES): O=c1c2ccccc2nc(/C=C/c2cccnc2)n1Cc1ccccc1 [Compound B02, (E)-3-benzyl-2-(2-(pyridin-3-yl)vinyl)quinazolin-4(3H)-one]
- RAD51 oligomerization (RAD51 [1]): does not affect RAD51 oligomerization
- IC50 (RecA [2]; IC50 (RecA), RecA 1 μM, ssDNA 3 μM, dsDNA 50 μM): > 250 µM
- IC50 (RecA [2]; IC50 for RecA (D-loop), RecA 0.3 μM, ssDNA 0.9 μM, dsDNA 15 μM, B02 incubated with protein before ssDNA): > 100 µM
- inhibition of RecA DNA strand exchange, in words (RecA [2]; up to 250 μM): no significant inhibition
- DNA binding, result in words (pUC19 supercoiled dsDNA): not to bind DNA
- inhibition of IR-induced RAD51 foci formation, in words ([3]; B02 20 μM): inhibitory effect was smaller
- decrease of average number of RAD51 foci per nucleus ([3]; B02 50 μM): 4.4 fold
- decrease of fraction of cells with RAD51 foci ([3]; B02 50 μM): 3.8 fold
- fraction of cells with RAD51 foci (≧1 focus) ([3]; B02 50 μM, 0.5 Gy IR, without B02 72±10%): 19±6%
- average number of RAD51 foci per nucleus ([3]; B02 50 μM, without B02 53±11): 12±4
- Joint Molecules (%) (RAD51 [4]): 6.0 ± 0.5%
- inhibition of branch migration activity of RecA (RecA [5]): did not inhibit
- yield of GFP positive cells (I-SceI-induced) [6]: 0.40%
